Results reported in patent publication US9636317B2, “Compositions and methods of use of phorbol esters” (priority 2007, dated 2017).
Where “and” joins values, the source holds several entries; their conditions need not be identical. Equal entries are not always repeated. Entries after “also recorded” stand apart in the source; their conditions may differ.

How the values were obtained:
[1] = Dose ranging study: toxicity and side effects of TPA doses given clinically by i.v. infusion; assay type: in vivo, human
Description: Due to the strong local irritation caused by TPA application, TPA was given to patients by intravenous (i.v.) infusion. TPA solution in a sterile syringe was injected into 200 ml of sterile saline and mixed well for i.v. infusion.
One mg TPA in solution was mixed well with 200 ml of sterile saline for intravenous infusion which was completed in 1 h at the rate of 16 μg/min. […] The above symptoms could be alleviated by giving the patients glucocorticoids. […] However, these side effects were short lived and reversible. The cardiac, hepatic, renal and pulmonary functions were all found to be normal.
0.5 mg of TPA in solution was mixed well with 200 ml of saline for intravenous infusion which was completed in 1 h at the rate of 8 μg/min. […] The patients tolerated the lower dose more easily. […] Difficulty in breathing was not observed. The cardiac, hepatic, renal and pulmonary functions were all normal.
0.25 mg of TPA in solution was mixed well with 200 ml of saline for intravenous infusion which was completed in 1 h at the rate of 4 μg/min. […] The cardiac, hepatic, renal and pulmonary functions were all normal.

[2] = tested on: HIV-cytopathic effects on MT-4 cells; settings: cited from earlier work
symptomatic HIV patients = test: First clinical study of HIV+ patients: symptoms and side effects (incl. case studies); assay type: in vivo, human
Description: Twelve symptomatic patients (five males and seven females) between the ages of 35 to 52 all of whom were infected with HIV in 1995 through blood transfusion and were refractory to standard treatments for HIV were treated with TPA. Each patient was administered a weight adjusted dosage of TPA (75 μg/sq m) in 200 ml of sterile saline by i.v. over one hour. This dose was administered once daily for the first three days of treatment. Each patient was then given this dose every other day for days 4 to 18 followed by a six month rest period prior to a second course of treatment according to the same protocol.
(§1) Results of treatment of initially symptomatic AIDS patients treated with TPA according to the protocols of Example III, IV, and V. Patients who participated in multiple studies are in some cases identified by more than one patient number. All patient identification numbers correspond to the patient numbers in Tables 1-7.

lymphoma = test: Treatment of lymphoma (patient case); assay type: in vivo, human
Text: Patient five was diagnosed with a re-occurrence of lymphoma and a mass of 3.5 cm in diameter. […] As of 2011, they have been in remission for three years.

HIV patients = test: Second clinical study of HIV+ patients: symptoms and side effects (incl. case studies); assay type: in vivo, human
Description: (§2) Nine of the patients in Example III were given a second treatment of TPA. Of these nine, seven were asymptomatic at the beginning of the second trial. A tenth patient (patient #2a) who was symptomatic and had not previously been treated with TPA was added to the study. Each patient was administered a weight adjusted dosage of TPA (75 μg/sq m) in 200 ml of sterile saline intravenously over one hour. This dosage was given to each patient once a day for ten consecutive days followed by a rest period of ten days for three cycles and a total of 30 doses of TPA. Patients 5a, 6a, and 8a stopped taking anti-AIDS drugs one month prior to beginning the TPA treatment and beginning again one month after the third cycle. Patients 1-4-a, 7a, and 9a-10a continued taking anti-AIDS drugs throughout the treatment.
as §1

[3] = Treatment of myasthenia gravis (patient case); assay type: in vivo, human; settings: 35 injections of TPA, concurrent dexamethasone
Description: Patient eleven, suffered from myasthenia gravis for more than 40 years. They were taking dexamethasone and concurrently and was injected with 1 ampoule containing 0.19 mg of TPA (0.125 mg/m^2) every other day for four weeks, then 0.24 mg of TPA (1.25×0.125 mg/m^2) every other day for 2 weeks, and 0.26 mg of TPA (1.5×0.125 mg/m^2) every other day for an additional 3 weeks for a total of 35 injections of TPA. They no longer need the dexamethasone and is now asymptomatic.

[4] = Second clinical study of HIV+ patients: periphery blood count; assay type: in vivo, human; settings: one value per patient
Description: as §2
Blood samples were taken three days prior to starting treatment, after completing the first 10 day cycle of TPA infusion and again after the last TPA infusion and CD3, CD4, CD8, WBC, RBC, HGB and platelets were measured.

[5] = tested on: relapsed/refractory AML, other myeloid malignancies, Hodgkin's Disease, non-Hodgkin's lymphoma, solid tumors; test: TPA Phase 1 study in relapsed/refractory malignancies; assay type: in vivo
Text: An initial TPA Phase 1 study enrolled 35 patients [23 with relapsed/refractory AML, 2 with other myeloid malignancies (CML-blast crisis, myelodysplasia with excess blasts), 3 with Hodgkin's Disease, 3 with non-Hodgkin's lymphoma and 4 with solid tumors]. The majority of patients had relapsed/refractory AML. Our clinical results include one AML patient with stable disease for >5 months, who received 8 TPA infusions. In a second AML patient, a pronounced (5-fold) decline in the number of circulating blasts was seen following TPA administration. This decline in leukemic blasts persisted for 4 weeks, and the patient eventually died from a fungal infection.

[6] = protocol of Example III (first or repeat course)
[7] = protocol of Example III (first or repeat course), individual patients
[8] = twelve symptomatic HIV patients
[9] = protocol of Example IV, individual patients
[10] = After first 10-day TPA infusing
[11] = After third 10-day TPA infusing

Structure (SMILES): CCCCCCCCCCCCCC(=O)O[C@@H]1[C@@H](C)[C@@]2(O)[C@@H](C=C(CO)C[C@]3(O)C(=O)C(C)=C[C@@H]23)[C@@H]2C(C)(C)[C@]12OC(C)=O [TPA, 12-O-tetradecanoylphorbol-13-acetate]
- Hb in the urine ([1]; 0.25 mg/patient ×4/week): No Hb was detected in the urine
- cardiac, hepatic, renal and pulmonary functions ([1]; 0.25 mg/patient ×4/week): normal
- chills and fever ([1]; 0.25 mg/patient ×4/week): observed, but to a much lesser extent than with the higher dosages
- difficulty in breathing ([1]; 0.25 mg/patient ×4/week): no patient suffered difficulty in breathing
- Hb in the urine ([1]; 0.5 mg/patient ×2/week): Occasionally, Hb was detected in patients' urine
- cardiac, hepatic, renal and pulmonary functions ([1]; 0.5 mg/patient ×2/week): normal
- difficulty in breathing ([1]; 0.5 mg/patient ×2/week): not observed
- Hb in the urine ([1]; 1 mg/patient/week): Hb was detected in the urine
- bleeding ([1]; 1 mg/patient/week): caused a minority of patients to bleed
- cardiac, hepatic, renal and pulmonary functions ([1]; 1 mg/patient/week): normal
- difficulty in breathing ([1]; 1 mg/patient/week): several patients suffered for a short period of time difficulty in breathing
- duration of fever ([1]; 1 mg/patient/week i.v. infusion): 3 to 5 h
- patients' temperature (fever) ([1]; 1 mg/patient/week i.v. infusion in 1 h): 37.5-39.5 °C
- duration of chills ([1]; 1 mg/patient/week i.v. infusion, start one hour after administration): about 30 min
- HIV-cytopathic effects [2]: inhibit the HIV-cytopathic effects on MT-4 cells
- duration of shortness of breath (symptomatic HIV patients; first treatment with TPA, individual patients): 15 min
- platelet count after TPA treatment (symptomatic HIV patients; patient #10, rose from 30,000): 110,000 per microliter
- other side effects during TPA treatment (individual patient) (symptomatic HIV patients; protocol of Example III): did not experience an increase in body temperature or any other side effect; also recorded: mild dizziness and headache; also recorded: serious skin irritation; also recorded: skin irritation due to a leaking needle
- symptom free period after TPA therapy (individual patient) (symptomatic HIV patients; [6]): five months; also recorded: one year
- symptoms after treatment with TPA (individual patient) (symptomatic HIV patients; [6]): gradual improvement in symptoms; also recorded: their oral lesions, skin thrush and fever disappeared; also recorded: marked improvement in their symptoms; also recorded: The lymph node returned to normal size; also recorded: no improvement in symptoms occurred; also recorded: their symptoms remained unchanged; also recorded: the frequency of their colds decreased; also recorded: their diarrhea was completely gone; also recorded: their dizziness, headache and diarrhea gradually lessened; also recorded: the dizziness, headache, fever and skin thrush were improving and gradually faded away; also recorded: their symptoms disappeared completely; also recorded: all their symptoms disappeared
- duration of the increase in body temperature (symptomatic HIV patients; [7]): 1-2 hours and four and 4 hours
- increase in body temperature during TPA treatment (symptomatic HIV patients; [7]): 38-39 °C and 38 °C and 38.5 °C
- additional patients with a decrease in symptoms (symptomatic HIV patients; [8]): Three additional patients had a decrease in symptoms
- patients who became symptom free (symptomatic HIV patients; [8]): Eight patients became symptom free
- patients with significant improvement following treatment (symptomatic HIV patients; twelve symptomatic HIV patients, 75 μg/sq m i.v.): eleven of the patients showed significant improvement
- lymphoma mass (3.5 cm in diameter) (lymphoma; 15 injections of 0.19 mg TPA every other day for 30 days): the mass disappeared
- duration of remission (lymphoma; as of 2011): three years
- AIDS symptoms in the symptomatic patients (#9a, #2a) (HIV patients; after three cycles of TPA): experienced a disappearance of AIDS symptoms
- AIDS symptoms in the other eight patients (HIV patients; began the study without AIDS symptoms): symptom free at the end of the study
- adverse effects during TPA treatment (individual patient) (HIV patients; protocol of Example IV): no adverse effects; also recorded: no side effects
- symptoms after treatment with TPA (individual patient) (HIV patients; protocol of Example IV): continues to have no symptoms of AIDS; also recorded: the fever and diarrhea were no longer a problem; also recorded: does not have any symptoms of AIDS; also recorded: has not had any symptoms of AIDS; also recorded: Her mental and physical condition has improved considerably
- duration of the increase in body temperature (HIV patients; [9]): two
- increase in body temperature during TPA treatment (HIV patients; [9]): 38.5 degrees centigrade
- myasthenia gravis symptoms [3]: asymptomatic
- HGB [4, 10]: 88 g/L and 1.38 g/L and 107 g/L and 1.35 g/L and 142 g/L and 143 g/L and 128 g/L and 57 g/L and 92 g/L and 99 g/L
- PLt [4, 10]: 2.38e+11 L⁻¹ and 3.38e+11 L⁻¹ and 3.06e+11 L⁻¹ and 3.15e+11 L⁻¹ and 2.56e+11 L⁻¹ and 2.58e+11 L⁻¹ and 2.21e+11 L⁻¹ and 2.14e+11 L⁻¹ and 1.87e+11 L⁻¹ and 3.25e+11 L⁻¹
- RBC [4, 10]: 2.14e+12 L⁻¹ and 3.83e+12 L⁻¹ and 2.92e+12 L⁻¹ and 3.46e+12 L⁻¹ and 3.48e+12 L⁻¹ and 3.76e+12 L⁻¹ and 3.86e+12 L⁻¹ and 1.99e+12 L⁻¹ and 2.58e+12 L⁻¹ and 2.61e+12 L⁻¹
- WBC [4, 10]: 3.7e+09 L⁻¹ and 9.8e+09 L⁻¹ and 3.6e+09 L⁻¹ and 5.7e+09 L⁻¹ and 4.2e+09 L⁻¹ and 6e+09 L⁻¹ and 4.3e+09 L⁻¹ and 2.6e+09 L⁻¹ and 2.9e+09 L⁻¹ and 4.4e+09 L⁻¹
- HGB [4, 11]: 102 g/L and 100 g/L and 140 g/L and 105 g/L and 144 g/L and 154 g/L and 123 g/L and 128 g/L and 67 g/L and 130 g/L
- PLt [4, 11]: 182 ×10^9/L and 124 ×10^9/L and 549 ×10^9/L and 105 ×10^9/L and 130 ×10^9/L and 169 ×10^9/L and 293 ×10^9/L and 138 ×10^9/L (2×) and 170 ×10^9/L
- RBC [4, 11]: 2.91e+12 L⁻¹ and 2.52e+12 L⁻¹ and 4.54e+12 L⁻¹ and 2.85e+12 L⁻¹ and 3.61e+12 L⁻¹ and 3.66e+12 L⁻¹ and 3.92e+12 L⁻¹ and 4.19e+12 L⁻¹ and 2.33e+12 L⁻¹ and 4.31e+12 L⁻¹
- WBC [4, 11]: 6.1e+09 L⁻¹ and 1.11e+10 L⁻¹ and 1.36e+10 L⁻¹ and 9.2e+09 L⁻¹ and 1.01e+10 L⁻¹ and 6.5e+09 L⁻¹ and 6e+09 L⁻¹ and 6.8e+09 L⁻¹ and 4e+09 L⁻¹ and 7e+09 L⁻¹
- patients with grade III non-hematologic dose limiting toxicities (DLT) ([5]; 0.188 mg/m2 d1-5, 8-12): 2 out of 3
- maximum tolerated TPA dose as a single agent ([5]; d1-5 and 8-12): 0.125 mg/m2/d
- duration of stable disease ([5]; one AML patient, 8 TPA infusions): > 5 months
- response of relapsed and refractory Hodgkin's disease ([5]; one patient): partial remission of a chest wall mass
- persistence of the decline in leukemic blasts ([5]; second AML patient): 4 weeks
- decline in the number of circulating blasts ([5]; second AML patient, following TPA administration): 5 fold
